Source: ChEMBL document CHEMBL3044968, “N-palmitoylethanolamide derivatives: synthesis and studies on anticonvulsant and antidepressant activities” (Med Chem Res, 2011)
The source made the active and inactive calls. The rule behind the calls is not given here.

Experiments:
Mus musculus [1] = experiment: Anticonvulsant activity in Mus musculus Kunming (mouse) assessed as protection against maximal electroshock-induced seizure at 300 mg/kg, ip measured after 30 min; format: functional, organism-based; set-up: dose 300 mg/kg
Mus musculus [2] = experiment: Anticonvulsant activity in Mus musculus Kunming (mouse) assessed as protection against maximal electroshock-induced seizure at 30 mg/kg, ip measured after 4 hr; format: functional, organism-based; set-up: dose 30 mg/kg
Mus musculus [3] = experiment: Neurotoxicity in Mus musculus Kunming (mouse) at 100 mg/kg, ip measured after 4 hr by rotarod test; format: toxicity, organism-based; set-up: dose 100 mg/kg, route intraperitoneal; details: in vivo
Mus musculus [4] = experiment: Neurotoxicity in Mus musculus Kunming (mouse) at 30 mg/kg, ip measured after 4 hr by rotarod test; format: toxicity, organism-based; set-up: dose 30 mg/kg, route intraperitoneal; details: in vivo
Mus musculus [5] = experiment: Neurotoxicity in Mus musculus Kunming (mouse) at 300 mg/kg, ip measured after 30 min by rotarod test; format: toxicity, organism-based; set-up: dose 300 mg/kg, route intraperitoneal; details: in vivo, 0.5 h
Mus musculus [6] = experiment: Neurotoxicity in Mus musculus Kunming (mouse) at 300 mg/kg, ip measured after 4 hr by rotarod test; format: toxicity, organism-based; set-up: dose 300 mg/kg, route intraperitoneal; details: in vivo
Mus musculus [7] = experiment: Anticonvulsant activity in Mus musculus Kunming (mouse) assessed as protection against maximal electroshock-induced seizure at 100 mg/kg, ip measured after 4 hr; format: functional, organism-based; set-up: dose 100 mg/kg
Mus musculus [8] = experiment: Neurotoxicity in Mus musculus Kunming (mouse) at 30 mg/kg, ip measured after 30 min by rotarod test; format: toxicity, organism-based; set-up: dose 30 mg/kg, route intraperitoneal; details: in vivo, 0.5 h
Mus musculus [9] = experiment: Anticonvulsant activity in Mus musculus Kunming (mouse) assessed as protection against maximal electroshock-induced seizure at 300 mg/kg, ip measured after 4 hr; format: functional, organism-based; set-up: dose 300 mg/kg
Mus musculus [10] = experiment: Anticonvulsant activity in Mus musculus Kunming (mouse) assessed as protection against maximal electroshock-induced seizure at 30 mg/kg, ip measured after 30 min; format: functional, organism-based; set-up: dose 30 mg/kg
Mus musculus [11] = experiment: Anticonvulsant activity in Mus musculus Kunming (mouse) assessed as protection against maximal electroshock-induced seizure at 100 mg/kg, ip measured after 30 min; format: functional, organism-based; set-up: dose 100 mg/kg
Mus musculus [12] = experiment: Antidepressant activity in Mus musculus Kunming (mouse) assessed as reduction in duration of immobility at 10 mg/kg, ip measured after 30 min by forced swim test; format: functional; details: 0.5 h, route intraperitoneal
Mus musculus [13] = experiment: Neurotoxicity in Mus musculus Kunming (mouse) at 100 mg/kg, ip measured after 30 min by rotarod test; format: toxicity, organism-based; set-up: dose 100 mg/kg, route intraperitoneal; details: in vivo, 0.5 h

SMILES	Activity (Mus musculus [1])	Activity (Mus musculus [2])	Activity (Mus musculus [3])	Activity (Mus musculus [4])	Activity (Mus musculus [5])	Activity (Mus musculus [6])	Activity (Mus musculus [7])	Activity (Mus musculus [8])	Activity (Mus musculus [9])	Activity (Mus musculus [10])	Activity (Mus musculus [11])	inhibition in vivo at 10 mg/kg (Mus musculus [12])	Activity (Mus musculus [13])
CCCCCCCCCCCCCCCC(=O)N(CCO)CCO	inactive	inactive	Non-toxic	Non-toxic	Non-toxic	Non-toxic	inactive	Non-toxic	inactive	inactive	inactive	26.3%	Non-toxic
CCCCCCCCCCCCCCCCCC(=O)NCCCO	inactive	inactive	Non-toxic	Non-toxic	Non-toxic	Non-toxic	inactive	Non-toxic	inactive	inactive	inactive	14.1%	Non-toxic
CCCCCCCCCCCCCCCCCC(=O)N(C)CCO	inactive	inactive	Non-toxic	Non-toxic	Non-toxic	Non-toxic	inactive	Non-toxic	inactive	inactive	inactive	22%	Non-toxic
O=C(/C=C/c1ccccc1)NCCCO		inactive	Non-toxic	Non-toxic	Toxic	Non-toxic	inactive	Non-toxic	inactive	inactive	inactive	23.4%	Non-toxic
CN(CCO)C(=O)/C=C/c1ccccc1	Active	inactive	Non-toxic	Non-toxic	Toxic	Non-toxic	inactive	Non-toxic		inactive		8.41%	Non-toxic
CNCCC(Oc1ccc(C(F)(F)F)cc1)c1ccccc1 (stereo not given) [FLUOXETINE]												39.4%	
CCCCCCCCCCCCCCCC(=O)N(CC)CC [HEXADECANOIC ACID DIETHYLAMIDE]	inactive	inactive	Non-toxic	Non-toxic	Non-toxic	Non-toxic	inactive	Non-toxic	inactive	inactive	inactive	17.3%	Non-toxic
O=C(/C=C/c1ccccc1)NCCO [IDROCILAMIDE]	Active	inactive	Non-toxic	Non-toxic	Toxic	Non-toxic	inactive	Non-toxic	inactive	Active	Active	25.9%	Non-toxic
CCN(CC)C(=O)/C=C/c1ccccc1 [N,N-DIETHYLCINNAMAMIDE]	Active	inactive	Non-toxic	Non-toxic	Toxic	Non-toxic		Non-toxic		inactive		18.2%	Non-toxic
CCCCCCCCCCCCCCCCCC(=O)N(CC)CC [N,N-DIETHYLSTEARAMIDE]	inactive	inactive	Non-toxic	Non-toxic	Non-toxic	Non-toxic	inactive	Non-toxic	inactive	inactive	inactive	18.4%	Non-toxic
CN(C)C(=O)/C=C/c1ccccc1 [N,N-DIMETHYLCINNAMAMIDE]	Active	inactive	Non-toxic	Non-toxic	Toxic	Non-toxic		Non-toxic		inactive		20%	Non-toxic
CCCCCCCCCCCCCCCCCC(=O)NCCO [N-(2-HYDROXYETHYL)STEARAMIDE]	Active	inactive	Non-toxic	Non-toxic	Non-toxic	Non-toxic	inactive	Non-toxic	inactive	Active	Active	5.65%	Non-toxic
CCCCCCCCCCCCCCCC(=O)NCCCO [N-(3-HYDROXYPROPYL)PALMITAMIDE]	inactive	inactive	Non-toxic	Non-toxic	Non-toxic	Non-toxic	inactive	Non-toxic	inactive	inactive	inactive	22.2%	Non-toxic
CCCCCCCCCCCCCCCC(=O)NCCO [PALMIDROL]	Active	inactive	Non-toxic	Non-toxic	Non-toxic	Non-toxic	inactive	Non-toxic	inactive		Active	6.25%	Non-toxic
